Test results as given in publication PMC8490515, “Neuromedin B receptor stimulation of Cav3.2 T-type Ca^2+ channels in primary sensory neurons mediates peripheral pain hypersensitivity” (Theranostics, 2021).

Legend:
nociceptive reflex = conditions: intrathecal injection; ref [4], [5]; cited from earlier work
Text: Neuromedin B (Nmb) is a highly conserved and non-glycosylated polypeptide in mammals initially purified from porcine spinal cord that serves as a neuromodulator by paracrine or autocrine mechanisms. Nmb receptor (NmbR), which is located predominantly (but not exclusively) in peripheral tissues and organs and the central nervous system in mammals, has been identified as an endogenous receptor for Nmb. Acting through this receptor, Nmb mediates several behavioural effects and performs various biological functions, including regulating food intake, smooth muscle contraction, body temperat ...

[1] = system: phosphorylated AMPK (p-AMPK); test: Western blot of phosphorylated AMPK in TG cells; type: cell-based, mouse; conditions: Nmb exposure (100 nM) in TG cells
Cav3.3 (α1I) = test: Cav3.3 channel currents in HEK293 cells coexpressing NmbR; type: cell-based, human; conditions: 100 nM Nmb; -110 mV to -30 mV; n = 7
[2] = system: nociception and neurogenic inflammation; conditions: application of Nmb; ref [4], [5]; cited from earlier work
Text: It has been well established that T-type channels promote Ca^2+ entry that disrupts the resting membrane potential and can modulate neuronal activity in the peripheral and central nervous systems, thus improving transmission efficiency. In the peripheral sensory neurons this low activation threshold property of T-type channels typically results in the amplification of sensory signals, increased afferent sensory transmission and, in particular, increased pain perception, [74].

[3] = system: p42 MAPK in Rat-1 cells transfected with the Nmb-preferring receptor; conditions: PKC-independent and pertussis toxin-insensitive; ref [62]; cited from earlier work
Text: In contrast, stimulation of PKC either by insulin-like growth factor in dorsal root ganglion neurons or by angiote ...

Cav3.1 (α1G) = test: Cav3.1 channel currents in HEK293 cells coexpressing NmbR; type: cell-based, human; conditions: 100 nM Nmb; -110 mV to -30 mV; n = 10
[4] = system: transient outward K^+ channel (IA); test: Transient outward A-type K+ currents (IA) in TG neurons; type: cell-based, mouse; conditions: 100 nM
Procedure: All the procedures performed in this study were carried out in accordance with NIH guidelines and were approved by the Institutional Animal Care and Use Committee of Soochow University. TG neurons were dissociated as previously described, [23]. Briefly, TGs were harvested from 8- to 10-week-old ICR mice of either sex, cut into small pieces and treated with 2 mg/mL collagenase D (Roche) for 20 min followed by 1.5 mg/mL trypsin (Sigma) at 37 °C for 15 min. Cells were dissociated via gentle trituration with fire-polished sterilized Pasteur pipettes and centrifuged through a 15% BSA gradient to remove debris and nonneuronal cells. TG neurons were resuspended in neurobasal A (Thermo Fisher) supplemented with B27 (Thermo Fisher) and transferred onto Matrigel-coated coverslips. Patch clamp recordings were conducted 2 to 6 h after plating. In shRNA-treated knockdown experiments, TG cells were replated onto coverslips 48 h after infection.
Standard whole-cell recordings were made at room temperature (22-23 °C) as described previously, [25]. Recording electrodes were pulled from borosilicate glass microcapillary tubes (Sutter Instruments) and had resistances from 3 to 5 MΩ when filled with internal solution. Recordings were obtained using a MultiClamp 700B amplifier (Axon Instruments). […]

## Neuromedin B [Nmb]
Nociceptive reflex
  nociceptive reflex responses: elicits nociceptive reflex responses
[1]
  level of phosphorylated AMPK: markedly increased
Cav3.3 (α1I)
  increase of Cav3.3 channel currents: 2.9 ± 1.6%
[2]
  pro-nociceptive effects of Nmb: can induce pro-nociceptive effects
[3]
  p42 MAPK activation: activated p42 MAPK
Cav3.1 (α1G)
  increase of Cav3.1 channel currents: 0.7 ± 1.2%
[4]
  decrease of peak amplitude of IA: 22.3 ± 3.9%
